The values that follow come from ChEMBL document CHEMBL1127727, “Synthesis and structure-activity relationships of novel retinoid X receptor-selective retinoids” (J Med Chem, 1994).

Assay [1] addresses T1, Retinoic acid receptor alpha (Homo sapiens, UniProt P10276).
T1 sequence (P10276 whole entry): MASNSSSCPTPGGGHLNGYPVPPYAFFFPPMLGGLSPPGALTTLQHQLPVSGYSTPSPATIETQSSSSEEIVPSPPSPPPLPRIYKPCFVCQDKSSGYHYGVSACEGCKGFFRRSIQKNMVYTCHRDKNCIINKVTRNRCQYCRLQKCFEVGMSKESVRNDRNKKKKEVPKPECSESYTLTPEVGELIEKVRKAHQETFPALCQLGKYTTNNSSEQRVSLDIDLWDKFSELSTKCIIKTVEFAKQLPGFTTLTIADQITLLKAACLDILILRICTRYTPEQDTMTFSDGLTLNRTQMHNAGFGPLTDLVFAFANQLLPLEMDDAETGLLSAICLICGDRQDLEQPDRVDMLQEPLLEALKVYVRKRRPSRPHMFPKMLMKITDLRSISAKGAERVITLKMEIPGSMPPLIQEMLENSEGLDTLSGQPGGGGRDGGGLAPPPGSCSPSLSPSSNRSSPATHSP
Nature of the assay: Effective concentration against retinoid receptor isoform (RAR alpha) expressed in CV-1 cells. In kind it is cell-based.

Assay [2] addresses T2, Retinoic acid receptor beta (Homo sapiens, UniProt P10826).
T2 sequence (P10826 whole entry): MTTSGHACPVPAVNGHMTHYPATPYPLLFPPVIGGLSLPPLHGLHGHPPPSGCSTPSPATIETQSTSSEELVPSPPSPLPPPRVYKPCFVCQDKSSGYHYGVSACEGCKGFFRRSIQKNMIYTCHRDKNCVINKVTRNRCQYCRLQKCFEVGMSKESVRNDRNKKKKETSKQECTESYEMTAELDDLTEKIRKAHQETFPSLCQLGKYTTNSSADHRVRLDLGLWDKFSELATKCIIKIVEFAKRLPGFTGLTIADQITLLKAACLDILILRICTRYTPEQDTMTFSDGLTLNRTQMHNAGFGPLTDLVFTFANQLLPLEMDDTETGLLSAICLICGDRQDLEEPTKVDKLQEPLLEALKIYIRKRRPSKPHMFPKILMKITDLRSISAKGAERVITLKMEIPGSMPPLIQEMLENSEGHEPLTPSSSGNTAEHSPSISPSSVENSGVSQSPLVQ
Briefly: Effective concentration against retinoid receptor isoform (RAR beta) expressed in CV-1 cells. In kind it is cell-based.

In assay [3] the target is T3, Retinoic acid receptor RXR-gamma (Mus musculus, UniProt P28705).
T3 sequence (P28705 whole entry): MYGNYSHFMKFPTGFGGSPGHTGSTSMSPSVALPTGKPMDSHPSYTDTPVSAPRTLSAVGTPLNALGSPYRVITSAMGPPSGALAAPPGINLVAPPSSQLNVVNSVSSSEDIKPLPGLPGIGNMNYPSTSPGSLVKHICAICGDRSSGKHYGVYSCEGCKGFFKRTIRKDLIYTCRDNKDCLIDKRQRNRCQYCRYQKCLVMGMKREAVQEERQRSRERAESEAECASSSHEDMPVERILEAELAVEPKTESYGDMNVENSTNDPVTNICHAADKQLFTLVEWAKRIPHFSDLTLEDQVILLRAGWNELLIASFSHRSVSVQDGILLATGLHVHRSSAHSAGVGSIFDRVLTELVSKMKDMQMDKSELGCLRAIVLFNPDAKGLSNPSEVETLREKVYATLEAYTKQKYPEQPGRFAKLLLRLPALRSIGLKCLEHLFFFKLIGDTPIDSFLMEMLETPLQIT
Briefly: Effective concentration against retinoid receptor isoform (RXR gamma) expressed in CV-1 cells. In kind it is cell-based.

In assay [4] the target is T4, Retinoic acid receptor RXR-beta (Mus musculus, UniProt P28704).
T4 sequence (P28704 whole entry): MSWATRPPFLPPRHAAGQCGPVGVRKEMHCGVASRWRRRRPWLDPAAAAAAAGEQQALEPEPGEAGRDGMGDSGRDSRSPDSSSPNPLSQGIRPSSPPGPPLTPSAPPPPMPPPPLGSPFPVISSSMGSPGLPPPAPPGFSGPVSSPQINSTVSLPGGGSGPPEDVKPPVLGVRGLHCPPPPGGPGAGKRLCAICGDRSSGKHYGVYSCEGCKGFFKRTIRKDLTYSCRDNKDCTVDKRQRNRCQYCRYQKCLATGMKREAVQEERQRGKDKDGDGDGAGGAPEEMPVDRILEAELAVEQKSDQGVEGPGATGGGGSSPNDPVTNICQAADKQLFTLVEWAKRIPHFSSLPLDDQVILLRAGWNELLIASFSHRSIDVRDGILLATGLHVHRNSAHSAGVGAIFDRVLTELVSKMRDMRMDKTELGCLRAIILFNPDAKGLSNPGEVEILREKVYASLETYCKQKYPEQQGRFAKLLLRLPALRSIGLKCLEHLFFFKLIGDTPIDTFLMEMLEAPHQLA
Briefly: Inhibition of [3H]9-cis-RA binding to baculovirus expressed retinoid receptor RXR beta.

In assay [5] the target is T1, Retinoic acid receptor alpha. Nature of the assay: Inhibition of [3H]-ATRA binding to baculovirus expressed retinoid receptor RAR alpha.
Assay [6] has as its target T3, Retinoic acid receptor RXR-gamma. Nature of the assay: Inhibition of [3H]9-cis-RA binding to baculovirus expressed retinoid receptor RXR gamma.
Assay [7] addresses T5, Retinoic acid receptor gamma (Homo sapiens, UniProt P13631).
T5 sequence (P13631 whole entry): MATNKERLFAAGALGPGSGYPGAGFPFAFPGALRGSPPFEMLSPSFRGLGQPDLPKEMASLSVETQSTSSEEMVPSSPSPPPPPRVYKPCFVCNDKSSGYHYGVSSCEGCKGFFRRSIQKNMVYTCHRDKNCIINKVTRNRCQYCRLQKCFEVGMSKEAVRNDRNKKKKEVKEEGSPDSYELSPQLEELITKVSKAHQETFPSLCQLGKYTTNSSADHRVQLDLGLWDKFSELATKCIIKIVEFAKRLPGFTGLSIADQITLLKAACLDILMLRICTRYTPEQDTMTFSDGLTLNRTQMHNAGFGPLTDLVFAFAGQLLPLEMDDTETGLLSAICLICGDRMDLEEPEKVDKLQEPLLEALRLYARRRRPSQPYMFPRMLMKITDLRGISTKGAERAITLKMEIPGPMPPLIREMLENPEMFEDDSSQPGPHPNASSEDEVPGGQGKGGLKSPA
Nature of the assay: Tested for binding affinity against [3H]-ATRA binding to retinoid receptor isoform (RAR gamma) expressed in baculovirus.

In assay [8] the target is T6, Retinoic acid receptor RXR-alpha (Homo sapiens, UniProt P19793).
T6 sequence (P19793 whole entry): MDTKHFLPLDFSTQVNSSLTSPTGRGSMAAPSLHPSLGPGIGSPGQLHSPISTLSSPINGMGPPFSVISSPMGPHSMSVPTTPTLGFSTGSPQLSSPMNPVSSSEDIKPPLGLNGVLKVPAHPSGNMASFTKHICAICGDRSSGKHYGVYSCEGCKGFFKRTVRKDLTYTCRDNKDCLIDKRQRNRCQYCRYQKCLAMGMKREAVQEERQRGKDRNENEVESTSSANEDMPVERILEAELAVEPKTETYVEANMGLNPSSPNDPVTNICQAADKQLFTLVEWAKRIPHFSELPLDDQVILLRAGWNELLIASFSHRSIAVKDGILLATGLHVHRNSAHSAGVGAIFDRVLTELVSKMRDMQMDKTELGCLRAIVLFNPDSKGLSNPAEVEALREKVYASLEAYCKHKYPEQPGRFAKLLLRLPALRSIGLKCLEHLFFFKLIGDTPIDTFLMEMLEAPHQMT
Description: Effective concentration against retinoid receptor isoform (RXR alpha) expressed in CV-1 cells

The target in assay [9] is T5, Retinoic acid receptor gamma. Nature of the assay: Effective concentration against retinoid receptor isoform (RAR gamma) expressed in CV-1 cells. It is filed as cell-based.
Assay [10] addresses T2, Retinoic acid receptor beta. Nature of the assay: Inhibition of [3H]ATRA binding to baculovirus expressed retinoid receptor RAR beta.
Assay [11] deals with T4, Retinoic acid receptor RXR-beta. Briefly: Effective concentration against retinoid receptor isoform (RXR beta) expressed in CV-1 cells. In kind it is cell-based.
In assay [12] the target is T6, Retinoic acid receptor RXR-alpha. This is another data set of the same source.
Description: Inhibition of [3H]9-cis-RA binding to baculovirus expressed retinoid receptor RXR alpha
The target in assay [13] is T1, Retinoic acid receptor alpha. Nature of the assay: Inhibition of [3H]ATRA binding to baculovirus expressed retinoid receptor RAR alpha.

SMILES strings stand for the structures.

Broadly, the EC50 is the concentration that produces a half-maximal response. Higher therefore signals a need for much substance. The term Kd denotes the equilibrium constant for the complex coming apart. Read a high Kd as a looser complex. With `C=C(c1ccc(C(=O)O)cc1)c1cc2c(cc1CC)C(C)(C)CCC2(C)C`, the EC50 in assay [1] is over 10000 nM; in assay [2] it was over 10000 nM; in [3], 136 nM; in assay [8], 115 nM; in assay [9], over 10000 nM; in [11], 145 nM. For the same compound, the Kd was 44 nM in assay [4]; over 1000 nM in assay [5]; 59 nM in assay [6]; over 1000 nM in assay [7]; over 1000 nM in assay [10]; 31 nM in [12].

For `CC1(C)CCC(C)(C)c2cc(C(=O)c3ccc(C(=O)O)cc3)c(O)cc21`, the EC50 in assay [1], in [2], in [3], in [8], in assay [9] and in assay [11] was over 10000 nM in each case. Moreover, the Kd in assay [4] is over 1000 nM; in assay [5], over 1000 nM; in assay [6], over 1000 nM; in assay [7] it was over 1000 nM; in assay [10], over 1000 nM; in assay [12] it was 818 nM.

Take `C=C(c1ccc(C(=O)O)cc1)c1cc2c(cc1OC)C(C)(C)CCC2(C)C`: the EC50 in assay [1] is over 10000 nM; in assay [2] it was over 10000 nM; in [3], 230 nM; in [8] it was 83 nM; in assay [9], over 10000 nM; in assay [11], 198 nM. In addition, the Kd in assay [4] was 191 nM; in assay [6], 113 nM; in assay [13], over 1000 nM; in [7], over 1000 nM; in [10], over 1000 nM; in [12] it was 96 nM.

As to `C=C(c1ccc(C(=O)O)cc1)c1cc2c(cc1Cl)C(C)(C)CCC2(C)C`, the EC50 in assay [1] is over 10000 nM; in assay [2], 436 nM; in assay [3] it was 36 nM; in assay [8] it was 52 nM; in [9], 1450 nM; in [11] it was 33 nM. For the same compound, the Kd in assay [4] was 44 nM; in [5], over 1000 nM; in assay [6] it was 44 nM; in assay [7] it was over 1000 nM; in assay [10], over 1000 nM; in assay [12], 27 nM.

`C=C(c1ccc(C(=O)O)cc1)c1cc2c(cc1Br)C(C)(C)CCC2(C)C`: the EC50 in [1] is over 10000 nM; in [2], over 10000 nM; in assay [3] it was 43 nM; in assay [8] it was 51 nM; in assay [9] it was over 10000 nM; in assay [11], 59 nM. Further, the Kd in assay [4] is 34 nM; in [5], over 1000 nM; in assay [6], 35 nM; in [7] it was over 1000 nM; in assay [10], over 1000 nM; in [12] it was 28 nM.

`C=C(c1ccc(C(=O)O)cc1)c1cc2c(cc1O)C(C)(C)CCC2(C)C`: the EC50 in assay [1] is over 10000 nM; in assay [2], 2240 nM; in assay [3] it was 558 nM; in assay [8] it was 455 nM; in assay [9], over 10000 nM; in [11], 202 nM. Further, the Kd in [4] is 822 nM; in [5], over 1000 nM; in assay [6] it was 812 nM; in assay [7], over 1000 nM; in assay [10], over 1000 nM; in assay [12], 487 nM.

`C=C(c1ccc(C(=O)O)cc1)c1cc2c(cc1F)C(C)(C)CCC2(C)C`: the EC50 in assay [1] is over 10000 nM; in assay [2] it was 337 nM; in assay [3], 383 nM; in [8] it was 197 nM; in assay [9], 397 nM; in [11] it was 189 nM. For the same compound, the Kd was 108 nM in assay [4]; over 1000 nM in assay [5]; 94 nM in [6]; over 1000 nM in assay [7]; over 1000 nM in assay [10]; 69 nM in [12].
